Literature values, collected in patent US20210275440A1, “MICROBEAD COMPOSITIONS AND METHODS FOR DELIVERING AN AGENT” (THE UNIVERSITY OF MEMPHIS RESEARCH FOUNDATION, priority 2016, published 2021).

Conditions: intra-articular administration

SMILES: CN[C@H](CC(C)C)C(=O)N[C@H]1C(=O)N[C@@H](CC(N)=O)C(=O)N[C@H]2C(=O)N[C@H]3C(=O)N[C@H](C(=O)N[C@H](C(=O)O)c4cc(O)cc(O)c4-c4cc3ccc4O)[C@H](O)c3ccc(c(Cl)c3)Oc3cc2cc(c3O[C@@H]2O[C@H](CO)[C@@H](O)[C@H](O)[C@H]2O[C@H]2C[C@](C)(N)[C@H](O)[C@H](C)O2)Oc2ccc(cc2Cl)[C@H]1O (atropisomer, axis not shown) [vancomycin]
- half-life: 3 h
- time therapeutic levels in joint and serum were maintained: 24 h
